# Activity calls are given as the source filed them.
# Experiments:
# [1] = molecular target: T1, Acyl-CoA dehydrogenase family member 10 (Homo sapiens, UniProt Q6JQN1)
# T1 sequence (Q6JQN1 whole entry): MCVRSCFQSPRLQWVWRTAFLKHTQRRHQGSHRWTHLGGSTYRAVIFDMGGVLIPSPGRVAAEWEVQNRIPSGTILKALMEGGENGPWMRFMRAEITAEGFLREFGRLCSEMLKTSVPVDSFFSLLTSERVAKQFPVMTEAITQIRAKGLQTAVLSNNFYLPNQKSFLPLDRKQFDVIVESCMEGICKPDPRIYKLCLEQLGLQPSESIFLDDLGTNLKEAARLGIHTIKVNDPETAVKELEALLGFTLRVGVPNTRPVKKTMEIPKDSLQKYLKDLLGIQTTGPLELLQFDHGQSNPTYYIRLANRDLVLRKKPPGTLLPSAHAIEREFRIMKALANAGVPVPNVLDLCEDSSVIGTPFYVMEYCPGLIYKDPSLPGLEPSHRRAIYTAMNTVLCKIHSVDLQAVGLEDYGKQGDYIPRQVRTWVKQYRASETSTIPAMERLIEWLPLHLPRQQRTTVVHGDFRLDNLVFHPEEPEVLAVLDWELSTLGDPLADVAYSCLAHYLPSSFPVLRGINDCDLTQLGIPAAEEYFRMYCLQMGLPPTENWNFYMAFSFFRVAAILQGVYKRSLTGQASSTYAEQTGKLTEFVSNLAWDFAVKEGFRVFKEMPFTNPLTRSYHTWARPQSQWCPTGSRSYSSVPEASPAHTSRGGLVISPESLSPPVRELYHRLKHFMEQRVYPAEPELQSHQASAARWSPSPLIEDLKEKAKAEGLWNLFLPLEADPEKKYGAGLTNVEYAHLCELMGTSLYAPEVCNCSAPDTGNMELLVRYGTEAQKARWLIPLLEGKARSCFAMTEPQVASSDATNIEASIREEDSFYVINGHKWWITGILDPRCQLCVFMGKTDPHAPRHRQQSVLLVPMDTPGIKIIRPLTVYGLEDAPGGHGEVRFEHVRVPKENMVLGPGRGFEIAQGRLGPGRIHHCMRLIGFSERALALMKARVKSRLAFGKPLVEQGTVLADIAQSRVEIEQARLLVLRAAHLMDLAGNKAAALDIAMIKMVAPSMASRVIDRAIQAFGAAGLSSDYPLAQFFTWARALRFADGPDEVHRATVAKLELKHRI
# [2] = molecular target: T2, Serine/threonine-protein kinase A-Raf (Homo sapiens, UniProt P10398)
# T2 sequence (P10398 whole entry): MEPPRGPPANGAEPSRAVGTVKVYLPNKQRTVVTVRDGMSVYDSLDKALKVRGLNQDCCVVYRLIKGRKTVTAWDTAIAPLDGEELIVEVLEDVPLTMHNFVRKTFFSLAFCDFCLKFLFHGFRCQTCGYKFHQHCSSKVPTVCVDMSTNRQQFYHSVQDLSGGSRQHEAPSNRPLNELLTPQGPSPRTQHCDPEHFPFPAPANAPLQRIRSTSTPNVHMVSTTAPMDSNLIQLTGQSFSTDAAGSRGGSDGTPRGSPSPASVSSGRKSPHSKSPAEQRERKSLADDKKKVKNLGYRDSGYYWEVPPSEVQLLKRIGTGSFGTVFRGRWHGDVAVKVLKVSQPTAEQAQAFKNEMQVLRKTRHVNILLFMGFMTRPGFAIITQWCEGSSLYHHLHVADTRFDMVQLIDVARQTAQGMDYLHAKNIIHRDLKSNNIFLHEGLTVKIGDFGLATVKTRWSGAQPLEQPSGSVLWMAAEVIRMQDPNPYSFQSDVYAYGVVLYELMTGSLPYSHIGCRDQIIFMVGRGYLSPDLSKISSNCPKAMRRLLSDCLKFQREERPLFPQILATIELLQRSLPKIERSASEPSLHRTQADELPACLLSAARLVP
# [3] = molecular target: Putative heat shock protein HSP 90-beta 2 (Homo sapiens, UniProt Q58FF8)
# Putative heat shock protein HSP 90-beta 2, sequence (Q58FF8 whole entry, the tested form may be a part): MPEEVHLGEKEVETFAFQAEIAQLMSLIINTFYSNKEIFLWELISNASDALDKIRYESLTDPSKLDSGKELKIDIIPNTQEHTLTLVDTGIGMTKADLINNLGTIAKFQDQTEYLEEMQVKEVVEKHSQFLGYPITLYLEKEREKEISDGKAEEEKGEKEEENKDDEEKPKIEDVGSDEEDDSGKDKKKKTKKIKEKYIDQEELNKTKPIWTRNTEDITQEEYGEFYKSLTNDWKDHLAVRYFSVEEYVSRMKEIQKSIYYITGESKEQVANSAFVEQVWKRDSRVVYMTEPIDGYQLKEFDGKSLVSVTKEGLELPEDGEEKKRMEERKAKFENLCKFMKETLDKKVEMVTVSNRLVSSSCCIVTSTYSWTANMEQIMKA
# LIM domain kinase 1 = LIM domain kinase 1 (Homo sapiens, UniProt P53667)
# LIM domain kinase 1, sequence (P53667 whole entry, the tested form may be a part): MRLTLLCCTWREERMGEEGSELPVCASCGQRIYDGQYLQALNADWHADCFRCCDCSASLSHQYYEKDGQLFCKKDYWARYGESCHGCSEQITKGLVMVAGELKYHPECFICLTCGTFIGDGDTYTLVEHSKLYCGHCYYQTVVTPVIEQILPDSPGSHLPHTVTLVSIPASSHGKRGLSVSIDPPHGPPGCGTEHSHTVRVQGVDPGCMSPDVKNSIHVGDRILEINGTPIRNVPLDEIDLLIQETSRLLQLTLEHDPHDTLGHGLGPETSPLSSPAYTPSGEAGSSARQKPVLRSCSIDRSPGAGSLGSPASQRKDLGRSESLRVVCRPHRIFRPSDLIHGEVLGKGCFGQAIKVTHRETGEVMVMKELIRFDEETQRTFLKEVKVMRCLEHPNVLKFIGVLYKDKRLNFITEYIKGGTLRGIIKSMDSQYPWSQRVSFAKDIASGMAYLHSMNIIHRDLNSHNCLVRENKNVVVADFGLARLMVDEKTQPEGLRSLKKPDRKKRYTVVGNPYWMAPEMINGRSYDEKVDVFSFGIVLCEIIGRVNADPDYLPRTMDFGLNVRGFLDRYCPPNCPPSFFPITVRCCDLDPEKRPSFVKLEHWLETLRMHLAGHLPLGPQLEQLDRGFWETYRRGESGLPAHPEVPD
# [4] = molecular target: Tyrosine-protein kinase Lyn (Homo sapiens, UniProt P07948)
# Tyrosine-protein kinase Lyn, sequence (P07948 whole entry): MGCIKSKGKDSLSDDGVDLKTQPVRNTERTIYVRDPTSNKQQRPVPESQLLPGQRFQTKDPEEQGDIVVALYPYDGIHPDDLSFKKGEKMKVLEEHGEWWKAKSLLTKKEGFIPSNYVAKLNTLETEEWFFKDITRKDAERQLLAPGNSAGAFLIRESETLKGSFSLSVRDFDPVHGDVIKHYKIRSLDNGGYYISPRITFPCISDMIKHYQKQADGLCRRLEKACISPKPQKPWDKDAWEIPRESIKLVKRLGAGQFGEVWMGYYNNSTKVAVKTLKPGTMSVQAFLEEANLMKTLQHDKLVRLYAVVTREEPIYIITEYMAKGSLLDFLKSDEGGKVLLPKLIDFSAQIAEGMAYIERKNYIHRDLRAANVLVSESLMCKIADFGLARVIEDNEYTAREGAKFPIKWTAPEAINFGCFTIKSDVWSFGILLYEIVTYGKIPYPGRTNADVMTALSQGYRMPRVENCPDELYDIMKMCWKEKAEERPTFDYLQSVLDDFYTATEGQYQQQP
# [5] = molecular target: MAP/microtubule affinity-regulating kinase 3 (Homo sapiens, UniProt P27448)
# MAP/microtubule affinity-regulating kinase 3, sequence (P27448 whole entry, canonical isoform): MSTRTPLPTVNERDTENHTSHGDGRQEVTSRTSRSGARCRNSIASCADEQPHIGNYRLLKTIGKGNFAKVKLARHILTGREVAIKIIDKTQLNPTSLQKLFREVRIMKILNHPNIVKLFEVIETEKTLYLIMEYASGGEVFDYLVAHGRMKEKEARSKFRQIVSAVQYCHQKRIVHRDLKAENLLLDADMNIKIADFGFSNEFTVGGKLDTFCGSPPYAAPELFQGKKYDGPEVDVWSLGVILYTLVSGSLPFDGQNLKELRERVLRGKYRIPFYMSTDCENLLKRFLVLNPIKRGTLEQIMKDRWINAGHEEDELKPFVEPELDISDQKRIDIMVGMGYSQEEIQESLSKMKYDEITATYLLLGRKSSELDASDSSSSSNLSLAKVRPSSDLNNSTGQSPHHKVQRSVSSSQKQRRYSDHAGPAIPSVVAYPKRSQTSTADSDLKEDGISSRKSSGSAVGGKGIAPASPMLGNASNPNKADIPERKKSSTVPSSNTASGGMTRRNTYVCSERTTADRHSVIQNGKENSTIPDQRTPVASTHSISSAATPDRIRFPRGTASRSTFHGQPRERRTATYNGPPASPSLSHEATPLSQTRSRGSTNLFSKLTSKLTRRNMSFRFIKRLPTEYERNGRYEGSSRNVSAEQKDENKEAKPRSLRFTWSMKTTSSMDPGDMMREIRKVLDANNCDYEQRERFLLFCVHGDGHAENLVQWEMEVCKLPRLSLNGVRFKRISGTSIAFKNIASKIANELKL
# [6] = molecular target: T3, Phosphorylase b kinase gamma catalytic chain, liver/testis isoform (Homo sapiens, UniProt P15735)
# T3 sequence (P15735 whole entry): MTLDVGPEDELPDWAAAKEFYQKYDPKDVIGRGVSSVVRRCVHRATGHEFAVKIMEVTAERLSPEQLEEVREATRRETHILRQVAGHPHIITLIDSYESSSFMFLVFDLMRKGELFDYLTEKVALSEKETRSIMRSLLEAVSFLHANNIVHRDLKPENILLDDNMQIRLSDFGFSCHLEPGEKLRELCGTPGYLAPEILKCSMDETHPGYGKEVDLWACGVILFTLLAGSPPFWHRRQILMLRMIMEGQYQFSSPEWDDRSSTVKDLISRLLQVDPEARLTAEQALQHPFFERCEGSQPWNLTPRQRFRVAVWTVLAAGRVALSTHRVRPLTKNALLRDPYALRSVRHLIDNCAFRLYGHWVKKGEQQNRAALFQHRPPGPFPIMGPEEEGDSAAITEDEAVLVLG
# [7] = molecular target: T4, Phosphatidylinositol 5-phosphate 4-kinase type-2 alpha (Homo sapiens, UniProt P48426)
# T4 sequence (P48426 whole entry): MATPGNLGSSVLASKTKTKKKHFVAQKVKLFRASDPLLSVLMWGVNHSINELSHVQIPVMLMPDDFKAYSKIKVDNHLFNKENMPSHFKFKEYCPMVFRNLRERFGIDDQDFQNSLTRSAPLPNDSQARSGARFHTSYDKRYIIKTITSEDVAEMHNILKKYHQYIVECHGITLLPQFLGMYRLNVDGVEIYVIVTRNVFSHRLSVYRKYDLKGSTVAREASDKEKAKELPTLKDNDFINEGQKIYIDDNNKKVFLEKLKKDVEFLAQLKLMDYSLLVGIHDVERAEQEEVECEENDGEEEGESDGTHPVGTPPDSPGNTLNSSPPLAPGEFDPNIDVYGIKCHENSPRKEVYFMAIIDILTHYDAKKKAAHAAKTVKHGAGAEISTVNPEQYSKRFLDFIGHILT
# Further: in the data inactive means no Kd found up to 30 µM.
Kd [1],Kd [2],Kd [3],Kd (LIM domain kinase 1),Kd [4],Kd [5],Kd [6],Kd [7],SMILES
> 30 µM (inactive),> 30 µM (inactive),> 30 µM (inactive),> 30 µM (inactive),> 30 µM (inactive),> 30 µM (inactive),> 30 µM (inactive),> 30 µM (inactive),COc1cc2ncnc(Nc3ccc(F)c(Cl)c3)c2cc1NC(=O)/C=C/CN1CCCCC1 [DACOMITINIB ANHYDROUS]
> 30 µM (inactive),> 30 µM (inactive),> 30 µM (inactive),> 30 µM (inactive),> 30 µM (inactive),0.562 µM (active),> 30 µM (inactive),> 30 µM (inactive),CC[C@@](C)(Nc1ccnc(-c2c[nH]c3ncccc23)n1)C(=O)NCC(F)(F)F [DECERNOTINIB]
> 30 µM (inactive),> 30 µM (inactive),> 30 µM (inactive),> 30 µM (inactive),> 30 µM (inactive),> 30 µM (inactive),> 30 µM (inactive),> 30 µM (inactive),COc1cc(Nc2ncc(F)c(Nc3ccc4c(n3)N(COP(=O)(O)O)C(=O)C(C)(C)O4)n2)cc(OC)c1OC [FOSTAMATINIB]
3.96 µM (active),> 30 µM (inactive),> 30 µM (inactive),> 30 µM (inactive),> 30 µM (inactive),> 30 µM (inactive),> 30 µM (inactive),> 30 µM (inactive),O=S(=O)(c1cccc2c(O)nccc12)N1CCCNCC1 [HYDROXYFASUDIL]
> 30 µM (inactive),> 30 µM (inactive),> 30 µM (inactive),> 30 µM (inactive),> 30 µM (inactive),> 30 µM (inactive),> 30 µM (inactive),> 30 µM (inactive),Cc1ccc(C(=O)Nc2ccc(Oc3cc4cnn(C)c4cc3-c3cn[nH]c3)c(F)c2)c(=O)n1-c1ccc(F)cc1 [MERESTINIB]
> 30 µM (inactive),> 30 µM (inactive),> 30 µM (inactive),> 30 µM (inactive),> 30 µM (inactive),> 30 µM (inactive),> 30 µM (inactive),> 30 µM (inactive),O=C(NOC[C@H](O)CO)c1ccc(F)c(F)c1Nc1ccc(I)cc1F [MIRDAMETINIB]
> 30 µM (inactive),> 30 µM (inactive),> 30 µM (inactive),> 30 µM (inactive),> 30 µM (inactive),> 30 µM (inactive),> 30 µM (inactive),> 30 µM (inactive),COc1cccc2cc(-c3nc([C@H]4CC[C@H](C(=O)O)CC4)n4ncnc(N)c34)[nH]c12 [OSI-027]
> 30 µM (inactive),> 30 µM (inactive),> 30 µM (inactive),> 30 µM (inactive),> 30 µM (inactive),> 30 µM (inactive),> 30 µM (inactive),> 30 µM (inactive),O=C(Nc1ccc(OC(F)(F)F)cc1)c1sccc1NCc1ccnc2ccccc12 [OSI-930]
> 30 µM (inactive),> 30 µM (inactive),> 30 µM (inactive),> 30 µM (inactive),> 30 µM (inactive),> 30 µM (inactive),> 30 µM (inactive),> 30 µM (inactive),FC(F)(F)c1ccc(CNc2ccc(Cc3c[nH]c4ncc(Cl)cc34)cn2)cn1 [PEXIDARTINIB]
> 30 µM (inactive),> 30 µM (inactive),> 30 µM (inactive),> 30 µM (inactive),> 30 µM (inactive),> 30 µM (inactive),> 30 µM (inactive),> 30 µM (inactive),Cc1cc(C(=O)Nc2cc(Oc3ccc4nc(NC(=O)C5CC5)cn4n3)ccc2C)n(C)n1 [TAK-593]
> 30 µM (inactive),> 30 µM (inactive),> 30 µM (inactive),> 30 µM (inactive),> 30 µM (inactive),> 30 µM (inactive),> 30 µM (inactive),> 30 µM (inactive),Cn1c(=O)c(F)c(Nc2ccc(I)cc2F)c2c(=O)n(C[C@@H](O)CO)cnc21 [TAK-733]

SMILES,Kd [1],Kd [2],Kd [3],Kd (LIM domain kinase 1),Kd [4],Kd [5],Kd [6],Kd [7]
CC1(COc2ccc3c(c2)ncn3-c2ccc3cccc(N4CCC(N)CC4)c3n2)COC1 [CRENOLANIB],> 30 µM (inactive),> 30 µM (inactive),2.57 µM (active),> 30 µM (inactive),> 30 µM (inactive),0.22 µM (active),5.02 µM (active),> 30 µM (inactive)
CNC(=O)c1ccc(Nc2ncc(C(F)(F)F)c(NCc3nccnc3N(C)S(C)(=O)=O)n2)cc1 [DEFACTINIB],> 30 µM (inactive),> 30 µM (inactive),> 30 µM (inactive),> 30 µM (inactive),> 30 µM (inactive),4.49 µM (active),> 30 µM (inactive),> 30 µM (inactive)
Cc1c(Cn2c(C)nc3c(C(=O)O)cc(N4CCOCC4)cc32)cccc1C(F)(F)F [GSK-2636771],> 30 µM (inactive),> 30 µM (inactive),> 30 µM (inactive),> 30 µM (inactive),> 30 µM (inactive),> 30 µM (inactive),> 30 µM (inactive),> 30 µM (inactive)
C=CC(=O)Nc1cc(Nc2nccc(-c3cn(C)c4ccccc34)n2)c(OC)cc1N(C)CCN(C)C [OSIMERTINIB],> 30 µM (inactive),> 30 µM (inactive),> 30 µM (inactive),> 30 µM (inactive),> 30 µM (inactive),> 30 µM (inactive),> 30 µM (inactive),> 30 µM (inactive)
COc1cc(F)c(F)c(Nc2ccc(I)cc2F)c1NS(=O)(=O)C1(C[C@H](O)CO)CC1 [REFAMETINIB],> 30 µM (inactive),> 30 µM (inactive),> 30 µM (inactive),> 30 µM (inactive),> 30 µM (inactive),> 30 µM (inactive),> 30 µM (inactive),> 30 µM (inactive)
COCCN1CCN(Cc2ccc(-c3n[nH]c4c3C(=O)c3c(NC(=O)NN5CCOCC5)cccc3-4)cc2)CC1 [RGB-286638],> 30 µM (inactive),> 30 µM (inactive),> 30 µM (inactive),> 30 µM (inactive),> 30 µM (inactive),> 30 µM (inactive),> 30 µM (inactive),> 30 µM (inactive)

# Source: ChEMBL document CHEMBL3991601, “The target landscape of clinical kinase drugs” (Science, 2017)
